Laboratory results published in US8338426B2, “Piperazinyl derivatives useful as modulators of the neuropeptide Y2 receptor” (Janssen Pharmaceutica NV, priority 2007, dated 2012).

Assays:
rat Y2 receptor = target: T1, rat Y2 receptor (Rattus norvegicus, UniProt Q9ERC0); assay: Neuropeptide Y2 radioligand binding assay, [125I]PYY, rat hippocampus membranes; conditions: read-out: rY2 pKi (converted)
T1 construct: membranes from rat or mouse hippocampus were prepared; from tissue; host or cells: rat hippocampus membranes
T1 sequence (Q9ERC0 1-381): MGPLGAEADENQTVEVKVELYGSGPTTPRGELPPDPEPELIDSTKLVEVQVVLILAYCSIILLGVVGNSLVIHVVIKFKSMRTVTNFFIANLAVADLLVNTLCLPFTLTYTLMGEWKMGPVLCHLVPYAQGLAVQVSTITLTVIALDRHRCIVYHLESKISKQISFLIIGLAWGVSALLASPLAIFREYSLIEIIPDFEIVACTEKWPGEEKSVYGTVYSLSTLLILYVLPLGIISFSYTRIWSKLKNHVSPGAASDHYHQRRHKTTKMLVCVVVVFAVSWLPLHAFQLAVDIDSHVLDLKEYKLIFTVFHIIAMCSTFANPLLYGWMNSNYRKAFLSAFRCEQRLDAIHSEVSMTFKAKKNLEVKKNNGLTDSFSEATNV
Procedure: Radioligand binding assays for the human and rat/mouse Y2 receptor were performed as described in Bonaventure, P., D. Nepomuceno, C. Mazur, B. Lord, D. A. Rudolph, J. A. Jablonowski, N. I. Carruthers and T. W. Lovenberg, J Pharmacol Exp Ther. 2004, 308, 1130.
KAN-Ts endogenously expressing Y2 receptors were used, for the rat and mouse Y2 receptor, membranes from rat or mouse hippocampus were prepared. Membranes were incubated with [^125I]PYY (80 pM) in the presence or absence of test compound for 1 h at rt. The reaction was stopped by filtration through GF/C filter plates pre-soaked in 0.3% polyethylenimine and subsequently washed with Tris-HCl, 50 mM, 5 mM EDTA buffer. Plates were dried for 1 h in a 55° C. oven, scintillation fluid was added and the radioactivity was counted in a Packard TopCount. Specific binding to the NPY receptor subtypes was determined by radioactivity that was bound in the presence of 1 μM NPY.
Apparent Ki values were calculated as K=IC50/(1+C/KD), where C is concentration of the radioligand and pKi=−log Ki. Data presented below are expressed as mean±S.E.M.

human Y2 receptor = target: T2, human Y2 receptor (Homo sapiens, UniProt P49146); assay: [35S]GTPγS binding assay in KAN-Ts cells; type: biochemical
T2 construct: KAN-Ts endogenously expressing Y2 receptors were used; endogenous in cells; host or cells: KAN-Ts cells
T2 sequence (P49146 1-381): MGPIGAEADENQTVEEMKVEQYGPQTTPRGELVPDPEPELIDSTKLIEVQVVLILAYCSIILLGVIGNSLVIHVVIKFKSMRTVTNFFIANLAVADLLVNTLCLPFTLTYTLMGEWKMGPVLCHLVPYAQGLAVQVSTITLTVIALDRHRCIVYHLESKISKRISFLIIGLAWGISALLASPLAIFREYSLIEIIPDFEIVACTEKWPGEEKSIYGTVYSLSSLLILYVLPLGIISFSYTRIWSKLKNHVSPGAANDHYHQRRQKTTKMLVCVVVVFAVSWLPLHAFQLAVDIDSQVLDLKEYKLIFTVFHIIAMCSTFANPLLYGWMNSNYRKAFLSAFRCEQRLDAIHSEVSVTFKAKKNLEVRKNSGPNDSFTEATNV
Procedure: [^35S] GTPγS binding assay in KAN-Ts cells was performed as described in Bonaventure, P., D. Nepomuceno, C. Mazur, B. Lord, D. A. Rudolph, J. A. Jablonowski, N. I. Carruthers and T. W. Lovenberg, J Pharmacol Exp Ther. 2004, 308, 1130.
Assay mixtures (150 were preincubated with compounds for 30 minutes at ambient temperature. Then, 50 μl of [^35S]GTPγS in assay buffer was added to a final concentration of 200 pM and the assay mixtures were incubated for 1 hour at ambient temperature. Reactions were terminated by rapid filtration thought GF/C filters. Filters were washed twice with ice cold 50 mM Tris-HCl, pH 7.4 containing 10 mM MgCl2. Basal [^35S]GTPγS was measured in the absence of compounds. In initial experiments, nonspecific binding was measured in the presence of 100 μM GTPgS. This nonspecific binding never exceeded 10% of basal binding and was thus not subtracted from experimental data. Stimulation of [^35S]GTPγS was determined as percentage over basal and was calculated as one hundred times the difference between stimulated and basal binding (in cpm). […] Data are expressed as mean±S.E.M.
The antagonistic properties of the compound of formula (A) were evaluated in a [^35S]GTPγS binding assay in KAN-Ts cells endogenously expressing human Y2 receptors. […]

[1] = target: T3, Y2 receptor binding sites in rat hippocampus (Rattus norvegicus, UniProt Q9ERC0); assay: Ex vivo Y2 receptor occupancy in rats (autoradiography)
T3 construct: from tissue; host or cells: rat brain sections (hippocampus) after in vivo dosing
T3 sequence (Q9ERC0 1-381): T1 sequence (Q9ERC0 1-381)
Procedure: The pharmacokinetic, blood-brain barrier penetration and ex vivo receptor occupancy studies were performed as described in Bonaventure, P., D. Nepomuceno, C. Mazur, B. Lord, D. A. Rudolph, J. A. Jablonowski, N. I. Carruthers and T. W. Lovenberg, J Pharmacol Exp Ther. 2004, 308, 1130.
The compound of formula (A) was formulated in 20% hydroxypropylbetacyclodextrine. Subcutaneous (SC), oral (PO) or intravenous (IV) dosing was followed by blood sampling via cardiac puncture over a time course. Blood samples consisted of 250 μl samples taken from the heart using a 23-gauge needle into 1.5 ml micro-centrifuge tubes. Brains were removed from the animals and bisected down the midsagittal plane. One hemisphere was frozen on dry ice for ex vivo receptor binding autoradiography and the other was homogenized for LC/MS-MS analysis.
Ex vivo receptor binding autoradiography was performed on brain sections. Twenty-micron-thick coronal sections at the level of the […] regions were collected and incubated for 10 min with 100 pM [^125I]PYY in Krebs-Ringer phosphate buffer (KRP) at pH 7.4 supplemented with 0.1% BSA, 0.05% bacitracin, and 1 μM BIBP-3226 for Y1 receptor occlusion. The sections were not washed prior to incubation and were incubated 10 minutes to avoid dissociation. Nonspecific binding was determined using adjacent sections incubated in the presence of 1 μM unlabelled hNPY. At the end of the incubation, sections were washed 4 times (4 minutes each) in ice cold buffer, dipped in deionized water and rapidly dried under a stream of cold air. Sections were exposed to a Fujifilm Imaging Plate (BAS-MS2025) for 12 hours. The Phosphor Imaging Plate was scanned using a Fuji Bio-Imaging Analyzer System (BAS-5000). The digitized computer images generated by the scanner were visualized and quantified using ImageGauge V3.12 software (Fujifilm).

In the case of `CCN(CC)C(=O)C(c1ccccc1)N1CCN(c2ccc(NC(=O)c3ccccc3-c3cccnc3)cc2F)CC1` (racemic) [Cmpd (A), N-{4-[4-(Diethylcarbamoyl-phenyl-methyl)-piperazin-1-yl]-3-fluoro-phenyl}-2-pyridin-3-yl-benzamide], the Ki (rat Y2 receptor) is reported as 4.57 nM, the IC50 (human Y2 receptor; read-out: hY2 pIC50corr (converted)) is reported as 0.0501 nM and the “effect of compound by itself on [35S]GTPγS binding” value (human Y2 receptor; up to 10 μM, no PYY) is reported as “did not affect”. For the same molecule, the “time of maximal receptor binding site occupancy” value ([1]; rat hippocampus, SC 10 mg/kg) was about 1 h, the ED50 ([1]; rat hippocampus, SC, t=60 min) was 2 mg/kg and the receptor occupancy at 10 mg/kg ([1]; rat, 10 mg/kg SC, read-out: maximal ex vivo receptor occupancy) was about 100%.
